# Read-outs that look alike come from different tables or passages of the source. Peptide text beside a SMILES is read from it. * marks the point of attachment. Cbz = O=C(OCc1ccccc1)*
# Columns and labels:
# [1] = test system: RFP-LC3-THP-1 cells infected with Mtb; type: cell-based, human; conditions: 16 hr at 10 μM, TSR 2.5 μM
# THP-1 cells = type: cell-based, human; conditions: uninfected THP-1 cells
# FoxM1 = type: cell-based, murine; conditions: 5 μM, 16 hours, western blot
# PINK1 = type: cell-based, murine; conditions: 5 μM, 16 hr, western blot
# Parkin = type: cell-based, murine; conditions: 5 μM, 16 hr, western blot
# EIF-2α = type: cell-based, murine; conditions: 5 μM, 16 hours, western blot
# Mtb H37Rv = test: Resazurin microtiter assay; type: cell-based, Mycobacterium tuberculosis
# RAW-Difluo mLC3 cells = test: RAW-Difluo mLC3 autophagy reporter assay; type: cell-based, murine; conditions: 16 hours
# [2] = test system: luxBCADE-expressing H37Rv Mtb in THP-1 cells; type: cell-based, Mycobacterium tuberculosis; conditions: for effect of WRT on anti-Mtb activity in macrophages: THP-1 cells, + WRT (15 μM), 7 days
# 20S proteasome = 20S proteasome (Homo sapiens, UniProt P28072+P28074+Q99436); test: Proteasome-Glo assay on purified 20S proteasome; type: biochemical; conditions: 1 hr; for IC50 caspase-like activity / IC50 chymotrypsin-like activity / IC50 trypsin-like activity: purified 20S proteasome
# proteasomes = target: T1, proteasomes (Mus musculus, UniProt O55234+P70195+Q60692); test: Ub-R-GFP reporter assay of proteasomal activity in cells; type: cell-based, murine
# T1 sequence (O55234 60-264): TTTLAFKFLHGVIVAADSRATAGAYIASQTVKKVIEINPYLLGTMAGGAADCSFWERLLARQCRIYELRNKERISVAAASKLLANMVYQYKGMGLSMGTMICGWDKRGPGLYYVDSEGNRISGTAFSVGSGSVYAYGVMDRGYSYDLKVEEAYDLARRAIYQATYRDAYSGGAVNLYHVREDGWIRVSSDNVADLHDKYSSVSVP
# T1 sequence (Q60692 1-238): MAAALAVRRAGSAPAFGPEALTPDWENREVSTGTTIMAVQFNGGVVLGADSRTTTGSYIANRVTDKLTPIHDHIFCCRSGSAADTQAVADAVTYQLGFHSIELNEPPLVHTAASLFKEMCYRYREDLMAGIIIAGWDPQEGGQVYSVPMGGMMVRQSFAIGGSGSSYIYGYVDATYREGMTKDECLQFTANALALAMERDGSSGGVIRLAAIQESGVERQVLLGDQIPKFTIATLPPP
# T1 sequence (P70195 44-277): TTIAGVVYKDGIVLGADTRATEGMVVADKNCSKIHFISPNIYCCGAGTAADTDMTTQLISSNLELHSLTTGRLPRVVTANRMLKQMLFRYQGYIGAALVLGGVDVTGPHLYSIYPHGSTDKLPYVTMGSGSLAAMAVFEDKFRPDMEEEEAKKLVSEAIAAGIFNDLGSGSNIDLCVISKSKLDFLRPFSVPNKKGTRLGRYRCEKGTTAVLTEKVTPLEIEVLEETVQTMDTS
Compound,autophagosomes (RFP-LC3 puncta) per Mtb infected cell [1],FoxM1 protein levels (FoxM1),induction of autophagy (in words) (RAW-Difluo mLC3 cells),inhibition of intracellular Mtb growth [2],effect of WRT on anti-Mtb activity in macrophages [2],also measured
"COC[C@H]1OC(=O)c2coc3c2[C@@]1(C)C1=C(C3=O)[C@@H]2CCC(=O)[C@@]2(C)C[C@H]1OC(C)=O [WRT, wortmannin, reference compound]",< 5,,,,,effect on thiopeptide-induced autophagy (THP-1 cells): abrogates thiopeptide-induced autophagy
CC(C)C[C@@H](C=O)NC(=O)[C@H](CC(C)C)NC(=O)[C@H](CC(C)C)NC(=O)OCc1ccccc1 [MG-132] (Cbz-Leu-Leu-Leu-aldehyde),,significant decrease in FoxM1 protein levels,,,,PINK1 expression level (PINK1): little to no increase over basal levels; Parkin expression level (Parkin): little to no increase over basal levels
thiocillin III [TCIII],significantly increased the number of RFP-LC3 puncta per cell,,also induced autophagy,potent inhibitory effects on intracellular Mtb growth,no significant effect on their anti-Mtb activity in macrophages,"EIF-2α phosphorylation (EIF-2α): led to EIF-2α phosphorylation; activity against Mtb in vitro (REMA, in words) (Mtb H37Rv; Mtb H37Rv in culture, 4 days): active against Mtb in vitro at IC50s comparable to kanamycin; EC50 (RAW-Difluo mLC3 cells; read-out: EC50 induction of autophagy (RFP-LC3 puncta per cell)): 90 nM"
"C=C(NC(=O)c1csc(-c2nc3c(cc2O)-c2nc(cs2)C(=O)NC(C(C)O)C(=O)N/C(=C\C)c2nc(cs2)C(=O)NC2CC(O)C(=O)OCc4cccc5[nH]c(c(C)c45)C(=O)SCC(NC(=O)c4csc2n4)c2nc-3cs2)n1)C(N)=O (stereo not drawn) [NOS, nosiheptide]",significantly increased the number of RFP-LC3 puncta per cell,no effect on FoxM1 levels,induced autophagy at concentrations comparable to TSR,potent inhibitory effects on intracellular Mtb growth,no significant effect on their anti-Mtb activity in macrophages,"direct inhibition of reconstituted 20S proteasome (20S proteasome): directly inhibited the proteasome; IC50 caspase-like activity (20S proteasome): low micromolar; IC50 chymotrypsin-like activity (20S proteasome): low micromolar; IC50 trypsin-like activity (20S proteasome): low micromolar; activity against Mtb in vitro (REMA, in words) (Mtb H37Rv; Mtb H37Rv in culture, 4 days): active against Mtb in vitro at IC50s comparable to kanamycin; EC50 (proteasomes): 380 nM"
"C=C(NC(=O)C(=C)NC(=O)c1csc(-c2ccc3c(n2)-c2csc(n2)-c2csc(n2)C2C(C)CC(O)N2C(=O)C(Cc2ccc(O)cc2)N=C(O)C2CSC(=N2)C(Cc2ccccc2)N=C(O)c2csc(n2)C(CC(N)=O)N=C(O)c2nc-3oc2C)n1)C(=O)O (stereo not drawn) [GE, GE37468]",,,induced autophagy at concentrations comparable to TSR,,,
"C=C(NC(=O)C(=C)NC(=O)c1ccc2c(n1)-c1coc(n1)C(=C)NC(=O)C(=C)NC(=O)c1nc(oc1C)C(=C)NC(=O)C(C(C)(C)O)NC(=O)C(=C)NC(=O)c1nc(oc1C)/C(=C/C)NC(=O)C(C(C)O)NC(=O)c1csc-2n1)C(N)=O (stereo not drawn) [BER, berninamycin]",,,also induced autophagy,,,
"C=C(NC(=O)C(=C)NC(=O)c1csc(C2=N[C@@H]3c4csc(n4)[C@H]4NC(=O)c5csc(n5)[C@H]([C@](C)(O)[C@@H](C)O)NC(=O)[C@H]5CSC(=N5)/C(=C/C)NC(=O)[C@H]([C@@H](C)O)NC(=O)c5csc(n5)[C@]3(CC2)NC(=O)[C@H](C)NC(=O)C(=C)NC(=O)[C@H](C)NC(=O)[C@H]([C@@H](C)CC)N[C@@H]2C=Cc3c([C@H](C)O)cc(nc3[C@H]2O)C(=O)O[C@@H]4C)n1)C(N)=O [TSR, thiostrepton]",significantly increased the number of RFP-LC3 puncta per cell,significant decrease in FoxM1 protein levels,potently induced autophagy,potent inhibitory effects on intracellular Mtb growth,no significant effect on their anti-Mtb activity in macrophages,"direct inhibition of reconstituted 20S proteasome (20S proteasome): directly inhibited the proteasome; IC50 caspase-like activity (20S proteasome): substantially less active; IC50 chymotrypsin-like activity (20S proteasome): sub-micromolar; IC50 trypsin-like activity (20S proteasome): sub-micromolar; activity against Mtb in vitro (REMA, in words) (Mtb H37Rv): active against Mtb in vitro at IC50s comparable to kanamycin; EC50 (proteasomes): 1450 nM"
